Reference: patent US11708318B2, “Polymorphic forms of RAD1901-2HCL” (Radius Pharmaceuticals, Inc., priority 2017, dated 2023)
“Also recorded” adds a separate entry of the source.

What was measured:
[1] = Gravimetric Vapour Sorption (GVS), with XRPD of the recovered sample; type: physicochemical; settings: for Hygroscopicity (GVS): 0-90% RH; for XRPD post GVS (uptake 0-90% RH): after exposure to 0-90% RH
Method: Sorption isotherms were obtained using a SMS DVS Intrinsic moisture sorption analyzer, controlled by DVS Intrinsic Control software v1.0.1.2 (or v 1.0.1.3). The sample temperature was maintained at 25° C. by the instrument controls. The humidity was controlled by mixing streams of dry and wet nitrogen, with a total flow rate of 200 ml/min. The relative humidity was measured by a calibrated Rotronic probe (dynamic range of 1.0-100% RH), located near the sample. The weight change, (mass relaxation) of the sample as a function of % RH was constantly monitored by the microbalance (accuracy ±0.005 mg).
A sample (e.g., 20 mg) was placed in a tared mesh stainless steel basket under ambient conditions. The sample was loaded and unloaded at 40% RH and 25° C. (typical room conditions). A moisture sorption isotherm was performed as outlined below (2 scans giving 1 complete cycle). Standard isotherms were performed at 25° C. at 10% RH intervals over a 0-90% RH range. Data analysis was carried out using Microsoft Excel using DVS Analysis Suite v6.2 (or 6.1 or 6.0).
In a cycle of 2 scans, the first scan was performed with adsorption of 40-90% RH, followed by a second scan with desorption of 90-0% RH and adsorption of 0-40% RH, with intervals of 10% RH, at 25° C. with stability dm/dt of 0.002% ° C./min. The sorption time was 6 hr time out.
The sample was recovered after completion of the isotherm and re-analyzed by XRPD. Custom moisture sorption methods were also performed at 25° C. at fixed % RH intervals over a 0-95% RH range, with the purpose to fully understand the sorption/desorption behavior of the compound under elevated conditions.
To further explore the humidity behavior of Sample 1 (Form 1) upon exposure to high RH (>90%), custom GVS experiments were designed and carried out. Initially, the sample was treated by holding at 90 and then 95% RH for ˜12 hours to see if hydrate formation could be observed (HighRH method of Steps 1 and 2 of Table 2, FIGS. 6C-6D).
To test the stability of the hydrated state, GVS method HighRH_Desorp_3 was designed with a desorption step and subsequent adsorption (see Table 2 with steps 1-4, FIGS. 6E-6F).
Finally, to ensure complete conversion to the anhydrous and hydrated forms, a GVS experiment was designed to increase both the length of the desorption step at 0% RH, and the adsorption step at 95% RH, respectively (Table 3). Based on the weight stabilization observed in the kinetic plots for Sample 1 in HighRH and HighRH_Desorp_3 methods discussed above (FIGS. 6D and 6F), a holding time of 800 mins at 0% RH and 1600 mins at 95% RH were chosen. A double cycle was also recorded for this experiment to observe whether the sample would return to Form 1 or form a mixed anhydrous/hydrated species (see Table 3, FIGS. 6G-6H).

[2] = Storage at elevated temperature/humidity, analysed by XRPD; type: physicochemical
Method: Samples 1 and 2 were characterized by XRPD at various conditions. XRPD patterns were collected for the samples at ambient condition as the samples were provided; at variable temperature (VT-XRPD); at variable humidity (VH-XRPD); after the samples were exposed to 40° C./75% RH for 1 week and 25° C./97% RH for 1 week, respectively; and after a GVS measurement wherein the samples were exposed to 0-90% RH. Samples 1 and 2 were also characterized by ^1H NMR, TGA, DSC, KF, IC, GVS (exposed to 0-90% RH), PLM, SEM, and HPLC (Table 5).

[3] = as above; type: physicochemical; remark: listed apart in the source
estrogen receptor (ER) = target: T1, estrogen receptor (ER) (Homo sapiens, UniProt P03372); settings: cited from earlier work
T1 sequence (P03372 1-595): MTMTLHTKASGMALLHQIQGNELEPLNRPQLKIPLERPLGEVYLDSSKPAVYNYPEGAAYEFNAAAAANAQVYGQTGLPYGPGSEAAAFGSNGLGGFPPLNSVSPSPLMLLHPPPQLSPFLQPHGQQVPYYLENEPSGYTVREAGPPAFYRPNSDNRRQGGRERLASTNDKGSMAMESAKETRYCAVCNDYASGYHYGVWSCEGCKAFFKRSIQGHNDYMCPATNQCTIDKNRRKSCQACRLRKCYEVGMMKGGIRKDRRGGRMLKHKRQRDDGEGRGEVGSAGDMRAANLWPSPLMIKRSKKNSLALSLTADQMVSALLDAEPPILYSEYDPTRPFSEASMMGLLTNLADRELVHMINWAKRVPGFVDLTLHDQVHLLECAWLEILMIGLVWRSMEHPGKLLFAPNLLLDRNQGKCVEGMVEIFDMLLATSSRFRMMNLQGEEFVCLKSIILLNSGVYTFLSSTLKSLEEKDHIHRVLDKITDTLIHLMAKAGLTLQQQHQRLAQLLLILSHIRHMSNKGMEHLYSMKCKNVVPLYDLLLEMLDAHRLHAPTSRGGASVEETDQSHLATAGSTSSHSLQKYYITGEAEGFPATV

[4] = Variable humidity XRPD (VH-XRPD); type: physicochemical
Method: Samples run under non-ambient conditions were prepared by gently packing into a cavity, cut into a silicon wafer to obtain a flat surface and mounted onto a humidity stage with an Ansyco controller and humidity sensor positioned directly next to the sample holder. The data were collected at 298.15 K with water temperature of 35.0° C., in an angular range of 3 to 31° 2θ, with a step size of 0.025° 2θ, a collection time of 2.0 sec/step, and a collection time at each % RH was 41 min 28 sec. X-Ray Powder Diffraction (XRPD) patterns were collected at variable humidity values from 0 to 95% RH, based upon the humidity behavior of each compound observed during GVS experiments (described herein). For each Variable Humidity X-Ray Powder Diffraction (VH-XRPD) experiment performed, the % RH values selected are provided alongside the relevant experimental result. Full tables of detailing the % RH value at each collection point and the associated delay time at each value are provided in Tables 10-12. To fully characterize the polymorphic behavior of Samples 1 and 2 at variable humidity, and to collect reference XRPD patterns for the ‘pure’ anhydrous Form 1 and Form 2 material, and ‘pure’ hydrated Form 3 material, Variable Humidity (VH) XRPD experiments were conducted on Samples 1 and 2. Initially, VH-XRPD experiments were conducted using Sample 1, and XRPD diffractograms were collected at selected humidity values, in line with those collected during GVS experiments (see FIGS. 6E-6F). XRPD diffractograms were collected initially at ambient RH, then collected over 24 hours at ˜95% RH and finally collected during desorption steps to 0% RH and over 10 hours at 0% RH (see FIG. 4C). […]

## CCNCCc1ccc(CN(CC)c2cc(OC)ccc2[C@@H]2CCc3cc(O)ccc3C2)cc1.Cl.Cl [Form 1]
[1]
  Hygroscopicity (GVS): relatively non-hygroscopic; also recorded: low hygroscopicity
  XRPD post GVS (uptake 0-90% RH): stable; also recorded: No changes
[1]; above 90% RH
  Solid form on exposure to high RH (>90%) by GVS: irreversibly converted to the hydrate Form 3; also recorded: started converting to the hydrate Form 3
[1]; than Form 2
  Hygroscopicity compared with Form 2: lower hygroscopicity
[2]
  XRPD after storage at 25° C./97% RH for 1 week: converted to Form 3; also recorded: conversion towards a hydrated state Form 3
  XRPD after storage at 40° C./75% RH for 1 week: stable
[2]; high RH (>90%), e.g. for 7 days
  Solid form on prolonged exposure to high RH (>90%): converted to the hydrate Form 3
[2]; relative to heat and/or humidity
  Stability of the polymorphic form (overall characterization): stable

## CCNCCc1ccc(CN(CC)c2cc(OC)ccc2[C@@H]2CCc3cc(O)ccc3C2)cc1.Cl.Cl [Form 2]
[1]
  Hygroscopicity (GVS): hygroscopic
[2]; >40% RH, 7 days
  Solid form after exposure to >40% RH for 7 days: Form 3

## CCNCCc1ccc(CN(CC)c2cc(OC)ccc2[C@@H]2CCc3cc(O)ccc3C2)cc1.Cl.Cl [Lyophilization in water]
[3]; 25° C./97% RH
  XRPD post storage at 25° C./97% RH (10 days): Consistent with Form 3
[3]; 40° C./75% RH
  XRPD post storage at 40° C./75% RH (10 days): Consistent with Form 3

## CCNCCc1ccc(CN(CC)c2cc(OC)ccc2[C@@H]2CCc3cc(O)ccc3C2)cc1 [RAD1901]
Estrogen receptor (ER)
  Selectivity of binding to the estrogen receptor (ER): good selectivity

## CCNCCc1ccc(CN(CC)c2cc(OC)ccc2[C@@H]2CCc3cc(O)ccc3C2)cc1.Cl.Cl [Sample 2]
[1]
  Hygroscopicity (GVS): hygroscopic
  XRPD post GVS (uptake 0-90% RH): mixture of Form 2 and Form 3; also recorded: Mixture of form 2 and 3
[2]
  XRPD after storage at 25° C./97% RH for 1 week: Form 3 (FIGS. 5B and
  XRPD after storage at 40° C./75% RH for 1 week: Form 3 (FIG. 5B)
[4]; 0% RH
  VH-XRPD at 0% RH: 5E). Form 2 at 0% RH
[4]; >90% RH (92-93% RH recorded)
  VH-XRPD at high RH (>90%): conversion toward the hydrated state; also recorded: Conversion to Form 3
